These results are taken from patent publication US8592435B2, “Nitrogen-containing six-membered aromatic ring derivatives and pharmaceutical products containing the same” (Daiichi Sankyo Company, Limited, priority 2007, dated 2013).

The subject of experiment [1] is hippocampal neurons. Kind of experiment: Test Example 1: ability to promote axonal outgrowth. Particulars: Hippocampal neuron, 216 h; Compound Conc. = 3 μM; % of control; rat hippocampal neurons, day 9; read-out: Promotion of axonal outgrowth (%). Type of experiment: cell-based, Wistar rats. The protocol: According to the method of M. P. Mattson [M. P. Mattson, Brain Res. Rev., 13, 179, (1988)], the hippocampal region was isolated from 18-day embryos of female Wistar rats and the neurons were dispersed using the papain dissociation system. Hippocampal neuron were suspended in 5% Nu-serum+B27 supplement+Neurobasal medium at 5×10^4 cells/well/2 mL. 2 mL of the cell suspension were inoculated on a poly-D-lysine-coated 36φ dish and the neuron were incubated at 37° C. in a 5% CO2 incubator.
On day 3 of the incubation period, 1 mL of the culture medium was replaced with 1 mL of 5% Nu-serum+B27 supplement+Neurobasal medium containing 2 mM AraC. Each test compound was added to the culture on day 3 and day 7 of the incubation period. On day 9, cells were fixed in a 4% paraformaldehyde solution. The nerve axons of the fixed cells were stained with the Rabbit anti-growth-associated protein-43 polyclonal antibody and the stained cells were quantified using Kurabo neuron outgrowth-quantication software.
The ability (%) of each test compound to promote axonal outgrowth was calculated from the following equation: The ability to promote axonal outgrowth (%)=[(measurement with a compound of interest)/(measurement of control)]×100
Example Compounds shown in Table 25 were used as test compounds and were each added at concentrations of 3 μM and 0.3 μM.
Since bFGF gives a measurement of about 120 in this test, 120 is used as the threshold to determine whether a given compound has the ability to promote axonal outgrowth

For experiment [2], the system named is spinal cord neurons. Kind of experiment: Test Example 3: ability to promote the neurite outgrowth of spinal cord neurons. Type of experiment: cell-based, Wistar rats. Particulars: Compound Conc. = 0.1 μM; % of control, day 3. As to the method: According to the method of Martin G. Hanson Jr. [J. Neurosci., 1998 Sep. 15; 18(18): 7361-71], the spinal cord region was isolated from 15-day embryos of female Wistar rats and the cells were dispersed using the papain dissociation system. Neurons were collected using 6.8% Metrizamide density gradient and were suspended in 2% FBS+Leibovitz's −15 medium so that the density of the cells will be 2×10^3 cells/well/200 μL. 200 μL of the cell suspension was inoculated on a poly-D-lysine/laminin-coated 96 well plate and the plate was incubated in an incubator at 37° C. Test compounds were added 1 hour after seeding of cells.
On day 3 of the incubation period, neurons were stained with Calcein-AM and the lengths of neurites were determined using IN Cell Analyzer (GE Healthcare Bioscience).
The ability (%) of each test compound to promote neurite outgrowth was calculated from the following equation: The ability to promote neurite outgrowth (%)=[(measurement with a compound of interest)/(measurement of control)]×100
Example Compounds 65, 71, 74, 92, 130 and 135 were used as test compounds and were each added at a concentration of 0.1 μM.
The results are shown in Table 27. bFGF gives a measurement of about 130 in this test.

Experiment [3] concerns critical limb ischemia model (left femoral artery excised). Kind of experiment: Test Example 4: lower limb ischemia (critical limb ischemia) model in mice. In kind it is in vivo, Balb/c mice. Particulars: oral once daily 0.1 or 1.0 mg/kg for 10 days from femoral artery excision, vs Vehicle. As to the method: According to the method of Ichiro Masaki [Circ Res. 90; 966-973 (2002)], the left femoral artery of Balb/c mice was excised to establish a model of critical limb ischemia (n=29 to 30).
Test compounds used were Example Compounds 65, 92, 114, 130, 135 and 136, each of which was orally administered once daily at a dose of 0.1 mg/kg or 1.0 mg/kg for 10 days starting from the day of femoral artery excision.
The results are shown in FIGS. 1 to 6 in which FIGS. 1, 2, 3, 4, 5 and 6 show the results of Example Compounds 65, 92, 114, 130, 135 and 136, respectively.
In the figures, a thick solid line indicates a Vehicle group, a thin dotted line indicates a group administered 0.1 mg/kg/day of each compound, and a thin solid line indicates a group administered 1.0 mg/kg/day of each compound.
*: P<0.05, **: P<0.01, ***: P<0.001 vs Vehicle by Wilcoxon's test.

Experiment [4] concerns mixture of human vascular endothelial cells and fibroblasts. Kind of experiment: Test Example 2: ability to promote angiogenesis (angiogenesis test kit KZ-1000). In kind it is cell-based. Particulars: Homo sapiens, 216 h, lumen length, % of control, day 9, read-out: Promotion of angiogenesis (%); for activity at 3 µM: Compound Conc. = 3 μM; for activity at 0.3 µM: Compound Conc. = 0.3 μM. The protocol: Using an angiogenesis test kit containing a mixture of human vascular endothelial cells and fibroblasts [KZ-1000; Kurabo], the ability of test compounds to promote angiogenesis was evaluated. Each test compound was added on days 1, 4, and 7 of the incubation period. On day 9, cells were immunostained with CD31 and photographed. Control cells were cultured under the same conditions, only without the addition of a test compound, and photographed.
The lumen length of the blood vessel was quantified from the obtained images using an angiogenesis-quantification software. The ability (%) of each test compound to promote angiogenesis was calculated from the following equation: The ability to promote angiogenesis (%)=[(measurement with a compound of interest)/(measurement of control)]×100
Example Compounds shown in Table 26 were used as test compounds.
Since bFGF gives a measurement of about 120 in this test, 120 is used as the threshold to determine whether a given compound has the ability to promote angiogenesis.

Experiment [5] relates to microsphere (micro-embolism) model. Nature of the experiment: Test Example 6: rat microsphere (micro-embolism) model. In kind it is in vivo, Crl:CD(SD) rats. The settings on record: rats, oral 1.0 mg/kg once daily for 10 days (Compound 65 also 0.1 mg/kg); 2 weeks after surgery. The text has this:
According to the method of Ichiro Date et al. [Journal of Neuroscience Research 78; 442-453 (2004)], 8-week-old male Crl:CD(SD) rats were used. Animals were anesthetized with halothane and midline incision was made. Right carotid artery was separated and a thread was looped around the common carotid artery and external carotid artery. The pterygopalatine artery was temporarily clipped with an aneurysm clip. The blood flow through the common carotid artery and external carotid artery was temporarily interrupted and 0.1 mL of a microsphere suspension composed of microspheres dispersed in a 30% sucrose solution (1800 microspheres/0.1 mL) was injected into the common carotid artery. After injection of the suspension, the puncture of the injection needle was filled with instant glue while the blood flow was interrupted. The blood flow was then restored and the surgical wound was sutured. Neurological symptoms were observed the day following the surgery. The animals were assigned to each treated group at random with respect to the measurements of neurological symptoms, the decrease in body weight from the previous day, and the body weight on that day.
The test compounds used were Example Compound 65, 108, 130, 135 and 137, each of which was administered at a dose of 1.0 mg/kg. Example Compound 65 was administered also at a dose of 0.1 mg/kg. Each compound was orally administered once daily for 10 days starting from the following day of the surgery. Coordinated motor functions were measured 5 times on an accelerated rota-rod (4 to 40 rpm/5 min) 2 weeks after the surgery.
Specifically, FIGS. 11 to 15 show the effect of different compounds 2 weeks after the microsphere injection (rota-rod test standard parameter). The figures show the results of rota-rod tests 2 weeks after the ischemic event in which each compound was orally administered at 1.0 mg/kg once daily for 10 days (Example Compound 65 was administered at 0.1 mg/kg or 1.0 mg/kg). What is shown in the figures is the total time of the 5 measurements on rota-rod as a standard parameter.
***: p<0.0001, Dunnett's multiple range test vs. Vehicle.

For experiment [6], the target named is T1, chemokine receptor CCR3 (Homo sapiens, UniProt P51677).
T1 sequence (P51677 1-355): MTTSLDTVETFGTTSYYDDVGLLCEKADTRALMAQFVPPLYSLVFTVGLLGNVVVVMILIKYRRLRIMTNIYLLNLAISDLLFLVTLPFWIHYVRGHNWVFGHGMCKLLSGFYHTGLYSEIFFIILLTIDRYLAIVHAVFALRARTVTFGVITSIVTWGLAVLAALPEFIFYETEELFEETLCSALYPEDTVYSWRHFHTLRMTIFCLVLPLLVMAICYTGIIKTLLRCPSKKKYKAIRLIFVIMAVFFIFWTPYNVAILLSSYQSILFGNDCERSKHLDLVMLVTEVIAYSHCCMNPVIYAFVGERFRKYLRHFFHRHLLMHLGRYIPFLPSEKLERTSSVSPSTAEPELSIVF
Nature of the experiment: Affinity to chemokine receptor CCR3. Type of experiment: binding. Particulars: at a concentration of 10 μM. The text has this: Although the compounds of the present invention are novel compounds, compounds having a partly similar skeleton are described, for example, in Published Japanese Translation of PCT International Application No. 2003-507456, WO 01/79170 and WO 00/23076.

Turning to `Cc1nc(OCC(=O)N(C)C2CCN(C(=O)C3CC3)CC2)nc(C)c1N` [Compound 92, 2-(5-amino-4,6-dimethylpyrimidine-2-yloxy)-N-(1-(cyclopropanecarbonyl)piperidine-4-yl)-N-methylacetamide], the activity at 3 µM came to 127% in experiment [1] and 153% in experiment [4]. The “Promotion of spinal cord neurite outgrowth (%)” value (“Promotion … (%)” below) in experiment [2] is on record as 120%. The “survival rate of lower limb” value in experiment [3] was “increased survival rate”.

Take `Cc1cnc(N)nc1NCC(=O)N(C)C1CCN(CC2CC2)CC1` [Compound 108, 2-(2-amino-5-methylpyrimidine-4-ylamino)-N-(1-(cyclopropylmethyl)piperidine-4-yl)-N-methylacetamide]: in experiment [1], the activity at 3 µM was determined as 122%. In experiment [5], the “coordinated motor functions, total time of 5 measurements on rota-rod” value (“coordinated motor functions, total time” for short) was “highly effective in ameliorating ischemic cerebral infarction”. In experiment [4], the activity at 0.3 µM amounted to 114%.

For the molecule `CNc1nccnc1OCC(=O)N(C)C1CCN(Cc2ccccc2)CC1.Cl` [Compound 130, N-(1-benzylpiperidine-4-yl)-N-methyl-2-(3-(methylamino)pyrazine-2-yloxy)acetamide hydrochloride], in experiment [1], the activity at 3 µM was determined as 143%. Moreover, the “Promotion … (%)” value in experiment [2] was 128%. Also, the “affinity to chemokine receptor CCR3” value in experiment [6] came to 3.5%. In experiment [3], the “survival rate of lower limb” value is “increased survival rate”. For the same molecule, the “coordinated motor functions, total time” value in experiment [5] was “highly effective in ameliorating ischemic cerebral infarction”. Also, the activity at 0.3 µM in experiment [4] is 118%.

For `CN(C(=O)COc1ccc(Cl)nn1)C1CCN(C(=O)C2CC2)CC1` [Compound 135, 2-(6-chloropyridazine-3-yloxy)-N-(1-(cyclopropanecarbonyl)piperidine-4-yl)-N-methylacetamide], the activity at 3 µM in experiment [1] was 131%; in experiment [4], 140%. Moreover, the “Promotion … (%)” value in experiment [2] is recorded as 121%. Also, the “affinity to chemokine receptor CCR3” value in experiment [6] amounted to 22%. Also, the “survival rate of lower limb” value in experiment [3] is given as “increased survival rate”. In addition, in experiment [5], the “coordinated motor functions, total time” value is “highly effective in ameliorating ischemic cerebral infarction”.

`CN(C(=O)COc1ccc(Cl)nn1)C1CCN(Cc2ccccc2)CC1` [Compound 137, N-(1-benzylpiperidine-4-yl)-2-(6-chloropyridazine-3-yloxy)-N-methylacetamide]: the “coordinated motor functions, total time” value in experiment [5] is on record as “highly effective in ameliorating ischemic cerebral infarction”.
